In data set [1] the test system is Harmaline-induced tremor. To be noted: for inhibition of tremors (tremor events): FIG. 1; for Minimally Efficacious Dose: oral dosing 30 min before 10 mg/Kg ip Harmaline, tremor events over 60 min. The protocol: The structure of each of these compounds is duplicated below.
Animals were administered with either Vehicle or compound (orally) 30 minutes prior to Harmaline administration (t=−30 minutes). Animals were then dosed ip with 10 mg/Kg Harmaline HCl in isotonic saline (t=0 minutes). Immediately following Harmaline administration, animals were monitored for 1 hour (t=0-60 minutes) to quantify the number of tremor events.
Tremor events were quantified via automated capture of forelimb tremor activity and confirmed by visual observation. Prior to testing, animals were fitted with a small metal band (0.5 g) on the right forepaw and acclimated to the testing apparatus for one hour. Immediately following Harmaline administration, animals were placed in the testing apparatus and tremor events were quantified for 60 minutes. A tremor event signal was generated when the transmitter band on the animal moved within the electromagnetic field generated by a loop antenna within the testing apparatus. Outputs from the amplifier were digitized at a sampling rate of 1,000 Hz and the signal was processed and analyzed using LabView software (National Instruments). […] Data were analyzed in one-minute bins over the course of the test and presented as the sum of tremor events over the entire 60 minute test.

The conditions of data set [2]: male, Sprague Dawley, rat, in vivo; for Measured Brain Concentration: po.
Method: (§1) It is calculated as follows: CFB=CMB×BFF, where CMB is the concentration of compound measured by mass spectrometry from brains harvested immediately following tremor recording (Table 1, “Measured Brain Concentration”). CFB is the amount of free compound not complexed with protein and therefore free to interact with the SK2 channel (Table 1, “Calculated Free Brain Concentration”). BFF is average free fraction of compound as measured by equilibrium dialysis (Table 1, “Brain Free Fraction”). This was performed by using 1 μM of compound with 10% brain tissue homogenate in phosphate buffer saline. Incubation time was 5 hours at 37° C. and detection was by LC-MS/MS. Reference compound was carbazepine. Free drug in brain available to interact with SK2 channels (CFB) is arrived at by multiplying the measured total brain level (CMB) by the average free fraction (BFF).
Data set [3] in a line: in vitro. The following applies: brain homogenate.
Method: as §1
Data set [4] has as its system harmaline-induced tremor. The following applies: for tremor, power spectrum in 10-14 Hz band: 5 mg/kg ip harmaline, 30 minutes; for percent Motion Power (% MP): FIG. 3. How it is done: Whole body tremor was measured by a San Diego Instruments Tremor Monitor (San Diego, Calif., USA). […] Tremor was measured for 30 minutes following harmaline administration, and data were analyzed by fast Fourier transform and reported as a frequency power spectrum. […] Data were further analyzed by calculating the percent Motion Power (% MP), defined as the power in the 9-13 Hz band divided by the total power across the spectrum (0-30 Hz) multiplied by 100.

Like-named read-outs stand apart in the source and are kept apart here.

Results on two molecules are retold here after patent publication US20180207138A1, “METHODS FOR THE TREATMENT OF TREMORS BY POSITIVE MODULATION OF SK CHANNELS” (Cadent Therapeutics, Inc., priority 2017, published 2018).

What is called fraction unbound is the share of the substance not bound to proteins or other matrix. For the molecule `Cc1cc(C)n(-c2nc(NC3CCC(F)(F)CC3)cc(N3CCOCC3)n2)n1` [Compound 1], in data set [1] (60 mg/Kg orally), the “inhibition of tremors (tremor events)” value was “significant inhibition of tremors”. Further, the “Minimally Efficacious Dose” value in data set [1] is 60 mg/kg. Moreover, in data set [2], the “Calculated Free Brain Concentration” value was 0.15 µM and the “Measured Brain Concentration” value came out at 3.1 µM. In data set [3], the fraction unbound at 5 h, 1 μM is 0.048.
Consider `Cc1ccn(-c2nc(NC3CCC(F)(F)CC3)cc(N3CCOCC3)n2)n1` [Compound 2], for which the “inhibition of tremors (tremor events)” value in data set [1] (30 mg/Kg orally) is on record as “significant inhibition of tremors”. The “Minimally Efficacious Dose” value in data set [1] is 30 mg/kg. The “tremor, power spectrum in 10-14 Hz band” value in data set [4] (3 mg/kg orally), in data set [4] (10 mg/kg orally) and in data set [4] (30 mg/kg orally) was “significantly reduced tremor” each time. Also, the “percent Motion Power (% MP)” value in data set [4] (3 mg/kg orally, n=8, P<0.01 vs harmaline+vehicle) is “significantly reduced harmaline-induced tremor”; in data set [4] (10 mg/kg orally, n=16, P<0.05 vs harmaline+vehicle), “significantly reduced harmaline-induced tremor”; in data set [4] (30 mg/kg orally, n=13, P<0.05 vs harmaline+vehicle), “significantly reduced harmaline-induced tremor”. Also, in data set [2], the “Calculated Free Brain Concentration” value was 0.08 µM. Also, the “Measured Brain Concentration” value in data set [2] worked out at 1.3 µM.
